Data published in patent US9056923B2, “Mimetic peptides derived from collagen type IV and their use for treating angiogenesis- and lymphagiogenesis-dependent diseases” (THE JOHNS HOPKINS UNIVERSITY, priority 2010, dated 2015).
Ends that are not written are not given here.

How the values were obtained:
Type in all cases: cell-based, human
HUVEC [1] = experiment: HUVEC migration assay (RT-CIM); conditions: for Migration Inhibition (5 uM): 5 uM peptide; for Activity in Migration: Yes/No summary, active = inhibitory potential greater than 30%; for Migration Inhibition (50 uM): 50 uM peptide
Experimental: The inhibitory potential of the peptides was measured using a real time migration assay system based on electrical impedance (RT-CIM, ACEA Biosciences, CA). CIM 16 well plates (Roche, 05665817001) are composed of a top and bottom chamber separated by a microporous (8 μm) polycarbonate membrane. The membrane was coated with fibronectin (20 μg/mL), and 45,000 cells/well in serum free media with or without peptides were added to the top compartment. Media with chemoattractant (i.e., fully supplemented EBM-2) was added to the bottom compartment of the chamber and the plate was incubated at 37° C. for 20 hours. The sensors integrated on the bottom side of the membrane monitor and continuously record changes in impedance as the cells move through the membrane. The RT-CIM technology allows for easy quantification of cell migration by monitoring the cell index derived from the measured impedances. Assays were performed in at least two independent replicates and each replicate was performed using two experimental duplicates.

HUVEC [2] = experiment: HUVEC tube formation assay on Matrigel; conditions: for Tube formation Inhibition (100 uM): 100 uM peptide; for Activity in Tube formation: Yes/No summary; for inhibition of tube formation: concentration not given
Experimental: The compounds also were tested for their ability to inhibit tube formation, a process critical in angiogenesis. Endothelial cells spontaneously form a network of tubes when plated on extracts of extracellular matrix. This in vitro assay combines aspects of adhesion and migration and it is routinely used in angiogenesis research (Oliveira-Ferrer et al., 2008). The ability to inhibit tube formation is a comprehensive assessment of the anti-angiogenic potential. The protocol was described by Arnaoutova et al. (2009) and it consists of plating HUVEC on top of basement membrane extract and after incubation at 37° C. the cells naturally rearrange themselves in a network of tubes. Thus, 50 μL/well of Matrigel (BD Biosciences, San Jose, Calif.) was plated in a cold 96 well plate and incubated at 37° C. for 30 min for polymerization. 15,000 cells/well were added to the top of the gel and incubated in complete media in the presence or absence of peptide for 19 hours. Images were captured using the CCD Sensicam mounted on a Nikon microscope (Eclipse T-100). Assays were performed in at least two independent replicates and each replicate was performed using three experimental replicates and one image of a randomly chosen field was acquired per well.

HUVEC [3] = conditions: HUVEC; for Activity in Proliferation: Yes/No summary
Experimental: Several assays were used to test the peptides discussed in the Examples herein. A colorimetric based proliferation assay using WST-1 (Roche, 11644807001) proliferation reagent was carried out using HUVEC cells. 2000 cells/well were plated in 96-well plates and allowed to adhere overnight. On the following day, the media was exchanged with fully supplemented media containing peptides or equivalent DMSO vehicle for the controls. Three days later the media containing the peptides was replaced with serum-free EBM-2 media containing WST-1 reagent and the plates were incubated for four hours as per the manufacturer's recommendations. Changes in color, due to the formazan dye resulted from the cleavage of the tetrazolium salt WST-1 by the mitochondrial succinate-tetrazolium reductase, were read on a Victor V fluorescence plate reader (Perkin Elmer, MA) by measuring the absorbance at 450 nm Dose response curves of percent live cells (in comparison to untreated cells but incubated in complete media with 0.2% DMSO) were created. Assays were performed in at least two independent replicates and each replicate was performed using three experimental triplicates.

HUVEC [4] = conditions: HUVEC; for Adhesion Inhibition (100 uM): 100 uM peptide; for Activity in Adhesion: Yes/No summary, active = inhibitory potential greater than 30%
Experimental: Similar to the migration assays, the inhibition activity of the peptide in cellular adhesion was assessed using the RT-CIM technology. In this case, 25,000 cells/well were plated in 16 wells E-plates (Roche, Basel Switzerland) in the presence or absence of the peptide. The adhesion was monitored over time (3 hours) by measuring changes in the electrical impedance, which is a direct measure of the cells adhering on the electrodes. […] Assays were performed in at least two independent replicates and each replicate was performed using two experimental duplicates.

Substance: LRRFSTMPFMFANINNVANF-NH2 [SP2023]
- Migration Inhibition (5 uM) (HUVEC [1]): 31.18%
- Activity in Migration (HUVEC [1]): Yes
- Tube formation Inhibition (100 uM) (HUVEC [2]): Complete
- Activity in Tube formation (HUVEC [2]): Yes
- Activity in Proliferation (HUVEC [3]): Yes
- Adhesion Inhibition (100 uM) (HUVEC [4]): 96.29%
- Activity in Adhesion (HUVEC [4]): Yes

Substance: LRRFSTMPFMFININN-NH2 [SP2033, LRRFSTMPFMFININN]
- Migration Inhibition (50 uM) (HUVEC [1]): 42.01%
- Activity in Migration (HUVEC [1]): Yes
- Tube formation Inhibition (100 uM) (HUVEC [2]): Complete
- Activity in Tube formation (HUVEC [2]): Yes
- inhibition of tube formation (HUVEC [2]): Inhibition of tube formation
- inhibition of proliferation (HUVEC [3]): potent activity in inhibiting proliferation
- Activity in Proliferation (HUVEC [3]): Yes
- Adhesion Inhibition (100 uM) (HUVEC [4]): 94%
- Activity in Adhesion (HUVEC [4]): Yes

Substance: LRRFSTMPFMFSNINNVSNF-NH2 [SP2022]
- Activity in Migration (HUVEC [1]): Yes
- Activity in Tube formation (HUVEC [2]): Yes
- inhibition of proliferation (HUVEC [3]): not affected
- Activity in Proliferation (HUVEC [3]): Yes
- Adhesion Inhibition (100 uM) (HUVEC [4]): 96.49%
- Activity in Adhesion (HUVEC [4]): Yes

Substance: LRRFSTMPFMFTNINN-NH2 [SP2032, LRRFSTMPFMFTNINN]
- Migration Inhibition (50 uM) (HUVEC [1]): 32.45%
- Activity in Migration (HUVEC [1]): Yes
- Tube formation Inhibition (100 uM) (HUVEC [2]): Complete
- Activity in Tube formation (HUVEC [2]): Yes
- inhibition of tube formation (HUVEC [2]): Inhibition of tube formation
- inhibition of proliferation (HUVEC [3]): potent activity in inhibiting proliferation
- Activity in Proliferation (HUVEC [3]): Yes
- Adhesion Inhibition (100 uM) (HUVEC [4]): 63%
- Activity in Adhesion (HUVEC [4]): Yes

Substance: LRRFSTMPFMFTNINNVTNF-NH2 [SP2025]
- Migration Inhibition (5 uM) (HUVEC [1]): 18.19%
- Activity in Migration (HUVEC [1]): Yes
- Tube formation Inhibition (100 uM) (HUVEC [2]): Complete
- Activity in Tube formation (HUVEC [2]): Yes
- inhibition of proliferation (HUVEC [3]): not affected
- Activity in Proliferation (HUVEC [3]): Yes
- Adhesion Inhibition (100 uM) (HUVEC [4]): 96.48%
- Activity in Adhesion (HUVEC [4]): Yes

Substance: LRRFSTMPFMFTNINV-NH2 [SP2029, LRRFSTMPFMFTNINV]
- Migration Inhibition (50 uM) (HUVEC [1]): 54.13%
- Activity in Migration (HUVEC [1]): Yes
- Tube formation Inhibition (100 uM) (HUVEC [2]): Complete
- Activity in Tube formation (HUVEC [2]): Yes
- inhibition of tube formation (HUVEC [2]): Inhibition of tube formation
- inhibition of proliferation (HUVEC [3]): potent activity in inhibiting proliferation
- Activity in Proliferation (HUVEC [3]): Yes
- Adhesion Inhibition (100 uM) (HUVEC [4]): 93.75%
- Activity in Adhesion (HUVEC [4]): Yes

Substance: LRRFSTMPFMFVNINNVVNF-NH2 [SP2027]
- Migration Inhibition (5 uM) (HUVEC [1]): 27.02%
- Activity in Migration (HUVEC [1]): Yes
- Tube formation Inhibition (100 uM) (HUVEC [2]): Complete
- Activity in Tube formation (HUVEC [2]): Yes
- inhibition of proliferation (HUVEC [3]): not affected
- Activity in Proliferation (HUVEC [3]): Yes
- Adhesion Inhibition (100 uM) (HUVEC [4]): 96.75%
- Activity in Adhesion (HUVEC [4]): Yes
